“And” between values parts separate entries of the source, which are not always exact repeats. Equal values may be shown once.
Tests used:
HEK293T cells [1] = assay: Cytotoxicity: necrosis induction (red fluorescent dye for permeable plasma membranes); format: cell-based; details: 1 µM, 24 h, necrotic cell count normalized to 0.1% DMSO, single replicates;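 further: compounds applied in DMEM high glucose with 0.1% FCS and 0.1% DMSO, necrotic HEK293T cells counted by red staining of cells whose plasma membranes had become permeable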
Gal4-VP16 = format: cell-based; details: 1 µM; vs. DMSO ctrl; single replicates n=1-3
ABL1 = biological target: T1, ABL1 (Homo sapiens, UniProt P00519); assay: Liability panel screening by DSF: ABL1; format: binding; details: DSF, 20 µM, n=2; read-out: Mean ΔTM ABL1
T1 construct: made in house
Procedure, shortened: (§1)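 Recombinant protein at 2 µM in 10 mM HEPES pH 7.5 with 500 mM NaCl was mixed with SYPRO Orange (1:1000) and heated at 3 °C/min up to 85 °C. Tm was taken as the Boltzmann-fit inflection point. Shifts are ∆Tm in K from technical duplicates.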

AURKA = biological target: T2, AURKA (Homo sapiens, UniProt O14965); assay: Liability panel screening by DSF: AURKA; format: binding; details: DSF, 20 µM, n=2; read-out: Mean ΔTM AURKA
T2 construct: made in house
T2 sequence (O14965 1-403): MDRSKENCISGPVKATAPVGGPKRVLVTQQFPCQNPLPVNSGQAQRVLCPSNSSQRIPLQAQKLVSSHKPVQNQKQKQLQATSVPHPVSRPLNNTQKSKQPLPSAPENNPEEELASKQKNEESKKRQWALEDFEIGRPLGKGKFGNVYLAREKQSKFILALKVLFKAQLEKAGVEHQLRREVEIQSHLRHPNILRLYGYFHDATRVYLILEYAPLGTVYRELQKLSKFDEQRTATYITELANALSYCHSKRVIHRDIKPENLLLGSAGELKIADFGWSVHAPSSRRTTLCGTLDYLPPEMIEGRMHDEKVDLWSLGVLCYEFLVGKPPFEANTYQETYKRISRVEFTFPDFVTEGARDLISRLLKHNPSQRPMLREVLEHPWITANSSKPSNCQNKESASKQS
Procedure, shortened: as §1

CDK2 = biological target: T3, CDK2 (Homo sapiens, UniProt P24941); assay: Liability panel screening by DSF: CDK2; format: binding; details: DSF, 20 µM, n=2; read-out: Mean ΔTM CDK2
T3 construct: made in house
Procedure, shortened: as §1

FGFR3 = biological target: T4, FGFR3 (Homo sapiens, UniProt P22607); assay: Liability panel screening by DSF: FGFR3; format: binding; details: DSF, 20 µM, n=2; read-out: Mean ΔTM FGFR3
T4 construct: made in house
Procedure, shortened: as §1

GSK3B = biological target: T5, GSK3B (Homo sapiens, UniProt P49841); assay: Liability panel screening by DSF: GSK3B; format: binding; details: DSF, 20 µM, n=2; read-out: Mean ΔTM GSK3B
T5 construct: made in house

BRD4 = biological target: T6, BRD4 (Homo sapiens, UniProt O60885); assay: Liability panel screening by DSF: BRD4; format: binding; details: DSF, 20 µM, n=2; read-out: Mean ΔTM BRD4
T6 construct: This panel comprised ten highly ligandable kinases and bromodomains; made in house
Procedure, shortened: as §1

BRPF1 = biological target: T7, BRPF1 (Homo sapiens, UniProt P55201); assay: Liability panel screening by DSF: BRPF1; format: binding; details: DSF, 20 µM, n=2; read-out: Mean ΔTM BRPF1
T7 construct: This panel comprised ten highly ligandable kinases and bromodomains; made in house
T7 sequence (P55201 628-732 limits assumed): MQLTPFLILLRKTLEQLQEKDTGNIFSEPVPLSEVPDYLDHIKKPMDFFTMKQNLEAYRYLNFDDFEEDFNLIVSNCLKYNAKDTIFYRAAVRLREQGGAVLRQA
Procedure, shortened: as §1

CSNK1D = biological target: T8, CSNK1D (Homo sapiens, UniProt P48730); assay: Liability panel screening by DSF: CSNK1D; format: binding; details: DSF, 20 µM, n=2; read-out: Mean ΔTM CSNK1D
T8 construct: made in house
Procedure, shortened: as §1

MAPK1 = biological target: T9, MAPK1 (Homo sapiens, UniProt P28482); assay: Liability panel screening by DSF: MAPK1; format: binding; details: DSF, 20 µM, n=2; read-out: Mean ΔTM MAPK1
T9 construct: made in house
Procedure, shortened: as §1

TRIM24 = biological target: T10, TRIM24 (Homo sapiens, UniProt O15164); assay: Liability panel screening by DSF: TRIM24; format: binding; details: DSF, 20 µM, n=2; read-out: Mean ΔTM TRIM24
T10 construct: This panel comprised ten highly ligandable kinases and bromodomains; made in house
T10 sequence (O15164 899-1004 limits assumed): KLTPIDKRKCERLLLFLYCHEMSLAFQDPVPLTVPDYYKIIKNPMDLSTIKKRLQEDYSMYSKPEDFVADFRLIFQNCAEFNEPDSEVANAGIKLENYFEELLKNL
Procedure, shortened: as §1

[2] = tested on: NF-κB activity in HEK293 NF-κB reporter cells; assay: NF-kB activity assay (GFP reporter, ionomycin/PMA); format: cell-based; details: for Mean NFκB response: n=3
Procedure, shortened: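 Reporter readout: GFP-expressing cells normalized to confluence, imaged every 90 min across 24 h after ionomycin (100 ng/mL)/PMA (10 ng/mL) stimulation of HEK293 cells pre-treated 4 h with compound (0.1% DMSO); triplicate independent experiments.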

[3] = tested on: ATF6 activity in Hela ATF6 reporter cells; assay: Endoplasmic reticulum stress assay (ATF6 Renilla luciferase reporter, tunicamycin); format: cell-based
Procedure, shortened: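 ER stress was induced by 100 ng/mL tunicamycin added 4 h after compound (0.1% DMSO) to HeLa ATF6 reporter cells. After 18 h more, Renilla luciferase signal was read and expressed relative to DMSO control, n=5 biological replicates.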

NR3C1 (GR) = details: (lit.); ref Supplementary Table 1; read-out: Potency [nM] EC50, NR3C1 (GR); cited from earlier work
HEK293T cells [4] = assay: Cytotoxicity: metabolic activity (WST-8 / CCK-8 assay); details: 1 µM; HEK293T, 24 h; WST-8; normalized to 0.1% DMSO; single replicates
HEK293T cells [5] = assay: Cytotoxicity: growth-rate (change in confluence over 24 h); details: 1 µM, normalized to 0.1% DMSO control, single replicates (n=1...)
HEK293T cells [6] = assay: Cytotoxicity: apoptosis induction (caspase-3/7 DEVD fluorogenic DNA dye); details: 1 µM; HEK293T, 24 h; apoptotic cell count normalized to 0.1% DMSO; single replicates

T4 sequence (P22607 23-806, species assumed): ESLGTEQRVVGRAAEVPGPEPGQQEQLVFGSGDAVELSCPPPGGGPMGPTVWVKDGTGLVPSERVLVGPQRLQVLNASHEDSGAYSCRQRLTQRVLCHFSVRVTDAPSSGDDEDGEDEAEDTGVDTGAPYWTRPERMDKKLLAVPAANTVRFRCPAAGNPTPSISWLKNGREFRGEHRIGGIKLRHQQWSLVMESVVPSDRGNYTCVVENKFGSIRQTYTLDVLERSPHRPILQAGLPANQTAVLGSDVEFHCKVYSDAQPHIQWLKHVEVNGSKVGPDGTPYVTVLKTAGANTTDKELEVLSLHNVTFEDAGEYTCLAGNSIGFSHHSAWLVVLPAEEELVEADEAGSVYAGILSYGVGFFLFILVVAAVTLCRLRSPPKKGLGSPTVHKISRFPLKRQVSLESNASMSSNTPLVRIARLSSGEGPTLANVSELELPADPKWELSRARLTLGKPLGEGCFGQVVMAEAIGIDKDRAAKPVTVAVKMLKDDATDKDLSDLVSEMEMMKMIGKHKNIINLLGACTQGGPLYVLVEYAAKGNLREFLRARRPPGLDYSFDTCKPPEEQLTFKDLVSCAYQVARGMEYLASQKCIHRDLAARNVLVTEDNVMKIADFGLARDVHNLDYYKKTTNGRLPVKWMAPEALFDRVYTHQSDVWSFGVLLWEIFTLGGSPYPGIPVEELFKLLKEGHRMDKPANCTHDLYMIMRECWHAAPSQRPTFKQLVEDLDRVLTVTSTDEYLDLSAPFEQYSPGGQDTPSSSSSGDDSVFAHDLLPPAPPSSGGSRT
T8 sequence (P48730 whole entry, species assumed): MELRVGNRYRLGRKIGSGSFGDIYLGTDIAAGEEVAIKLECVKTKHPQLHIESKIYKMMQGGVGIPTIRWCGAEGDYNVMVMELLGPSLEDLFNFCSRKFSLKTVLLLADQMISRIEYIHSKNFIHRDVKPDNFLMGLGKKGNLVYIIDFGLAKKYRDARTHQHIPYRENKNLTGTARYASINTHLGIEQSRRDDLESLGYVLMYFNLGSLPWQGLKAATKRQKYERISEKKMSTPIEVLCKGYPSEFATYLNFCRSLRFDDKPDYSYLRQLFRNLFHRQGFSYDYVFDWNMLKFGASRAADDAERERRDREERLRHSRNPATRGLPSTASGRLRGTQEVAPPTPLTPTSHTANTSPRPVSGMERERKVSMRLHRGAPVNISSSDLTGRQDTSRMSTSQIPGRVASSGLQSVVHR
T9 sequence (P28482 whole entry, species assumed): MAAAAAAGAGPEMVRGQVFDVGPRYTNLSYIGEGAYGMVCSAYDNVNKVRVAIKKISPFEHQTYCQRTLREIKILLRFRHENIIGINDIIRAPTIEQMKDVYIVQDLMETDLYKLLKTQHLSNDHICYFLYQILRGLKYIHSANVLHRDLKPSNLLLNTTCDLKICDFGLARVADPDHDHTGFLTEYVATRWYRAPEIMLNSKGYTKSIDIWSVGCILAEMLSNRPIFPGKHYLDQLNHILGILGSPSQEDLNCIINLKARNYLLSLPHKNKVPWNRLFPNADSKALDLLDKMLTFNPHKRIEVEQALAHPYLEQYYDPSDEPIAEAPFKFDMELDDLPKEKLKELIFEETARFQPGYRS
T5 sequence (P49841 whole entry, species assumed): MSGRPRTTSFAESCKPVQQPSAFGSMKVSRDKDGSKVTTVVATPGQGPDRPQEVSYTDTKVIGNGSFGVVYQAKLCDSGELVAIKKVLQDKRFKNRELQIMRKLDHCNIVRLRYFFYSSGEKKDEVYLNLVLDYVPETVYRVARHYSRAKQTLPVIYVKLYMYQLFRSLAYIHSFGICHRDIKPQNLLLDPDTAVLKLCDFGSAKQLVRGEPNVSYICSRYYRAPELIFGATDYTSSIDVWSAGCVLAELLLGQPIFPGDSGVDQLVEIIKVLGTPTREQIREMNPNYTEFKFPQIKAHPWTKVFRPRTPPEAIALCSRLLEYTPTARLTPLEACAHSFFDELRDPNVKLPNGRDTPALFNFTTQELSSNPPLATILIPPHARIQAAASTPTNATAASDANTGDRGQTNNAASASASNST
T1 sequence (P00519 whole entry, species assumed): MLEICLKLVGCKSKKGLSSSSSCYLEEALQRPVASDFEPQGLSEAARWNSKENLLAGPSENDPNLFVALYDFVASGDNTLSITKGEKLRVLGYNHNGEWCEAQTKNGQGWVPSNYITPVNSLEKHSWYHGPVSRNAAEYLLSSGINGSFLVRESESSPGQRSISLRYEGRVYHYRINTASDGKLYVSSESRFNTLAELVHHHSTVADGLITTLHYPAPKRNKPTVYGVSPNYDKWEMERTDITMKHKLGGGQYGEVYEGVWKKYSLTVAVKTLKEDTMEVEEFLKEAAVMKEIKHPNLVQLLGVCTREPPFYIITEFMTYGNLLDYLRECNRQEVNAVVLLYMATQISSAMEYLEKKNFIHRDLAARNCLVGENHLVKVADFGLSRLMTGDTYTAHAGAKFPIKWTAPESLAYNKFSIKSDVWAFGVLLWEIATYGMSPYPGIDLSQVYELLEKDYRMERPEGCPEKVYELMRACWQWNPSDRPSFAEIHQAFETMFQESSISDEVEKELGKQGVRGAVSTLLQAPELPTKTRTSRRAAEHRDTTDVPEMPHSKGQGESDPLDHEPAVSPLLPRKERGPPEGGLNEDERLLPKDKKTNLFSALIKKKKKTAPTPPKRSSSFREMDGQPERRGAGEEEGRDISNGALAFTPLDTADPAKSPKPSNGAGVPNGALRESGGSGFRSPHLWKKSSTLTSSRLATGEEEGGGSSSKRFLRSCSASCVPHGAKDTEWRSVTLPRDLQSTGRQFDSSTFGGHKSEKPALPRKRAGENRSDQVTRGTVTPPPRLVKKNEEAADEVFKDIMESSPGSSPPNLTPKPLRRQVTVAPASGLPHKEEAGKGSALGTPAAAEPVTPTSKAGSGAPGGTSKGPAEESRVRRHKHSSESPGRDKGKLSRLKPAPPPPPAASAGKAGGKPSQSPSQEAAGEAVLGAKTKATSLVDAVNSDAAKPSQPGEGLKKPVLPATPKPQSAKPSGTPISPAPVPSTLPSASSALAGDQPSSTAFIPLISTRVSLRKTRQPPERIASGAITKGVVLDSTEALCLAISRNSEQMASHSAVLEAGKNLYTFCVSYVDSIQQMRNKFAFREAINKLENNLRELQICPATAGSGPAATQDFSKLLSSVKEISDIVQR

SMILES: C[C@H]1C[C@H]2[C@@H]3CCC4=CC(=O)C=C[C@]4(C)[C@@]3(Cl)[C@@H](O)C[C@]2(C)[C@@]1(O)C(=O)CO [Beclomethasone]
- Necrosis induction [NI] (HEK293T cells [1]): 0.78 and 0.71 and 0.63 and 0.85
- VP16 control [fold reporter gene activity] (Gal4-VP16): 1.09 fold reporter gene activity and 0.87 fold reporter gene activity and 0.97 fold reporter gene activity
- ΔTm at 20 µM (ABL1): -0.27 °C
- ΔTm at 20 µM (AURKA): 0.03 °C
- ΔTm at 20 µM (CDK2): -0.29 °C
- ΔTm at 20 µM (FGFR3): -0.31 °C
- ΔTm at 20 µM (GSK3B): -0.75 °C
- ΔTm at 20 µM (BRD4): -0.57 °C
- ΔTm at 20 µM (BRPF1): -0.66 °C
- ΔTm at 20 µM (CSNK1D): -0.04 °C
- ΔTm at 20 µM (MAPK1): 0.36 °C
- ΔTm at 20 µM (TRIM24): -1.53 °C
- Mean NFκB response ([2]; 1 µM, 1,5 h): 2314.11 GFP+-cells/confluence ∙ 1000
- Mean NFκB response ([2]; 1 µM, 4,5 h): 2712.93 GFP+-cells/confluence ∙ 1000
- Mean NFκB response ([2]; 1 µM, 7,5 h): 3902.54 GFP+-cells/confluence ∙ 1000
- Mean NFκB response ([2]; 1 µM, 10,5 h): 7904.68 GFP+-cells/confluence ∙ 1000
- Mean NFκB response ([2]; 1 µM, 13,5 h): 11292.34 GFP+-cells/confluence ∙ 1000
- Mean NFκB response ([2]; 1 µM, 16,6 h): 14142.72 GFP+-cells/confluence ∙ 1000
- Mean NFκB response ([2]; 1 µM, 19,5 h): 16024.63 GFP+-cells/confluence ∙ 1000
- Mean NFκB response ([2]; 1 µM, 22,5 h): 18119.25 GFP+-cells/confluence ∙ 1000
- Mean NFκB response ([2]; 1 µM, 3 h): 2367.97 GFP+-cells/confluence ∙ 1000
- Mean NFκB response ([2]; 1 µM, 6 h): 3065.61 GFP+-cells/confluence ∙ 1000
- Mean NFκB response ([2]; 1 µM, 9 h): 5609.44 GFP+-cells/confluence ∙ 1000
- Mean NFκB response ([2]; 1 µM, 12 h): 9507.58 GFP+-cells/confluence ∙ 1000
- Mean NFκB response ([2]; 1 µM, 15 h): 12732.70 GFP+-cells/confluence ∙ 1000
- Mean NFκB response ([2]; 1 µM, 18 h): 14975.90 GFP+-cells/confluence ∙ 1000
- Mean NFκB response ([2]; 1 µM, 21 h): 16981.30 GFP+-cells/confluence ∙ 1000
- Mean NFκB response ([2]; 1 µM, 24 h): 19467.95 GFP+-cells/confluence ∙ 1000
- NF-κB activity (inflammatory response to ionomycin/PMA) ([2]; HEK293 NF-κB reporter cells, compounds at recommended concentrations, imaged over 24 h, n = 3): consistently delayed and strongly diminished NF-κB activity
- ATF6 activity (tunicamycin-induced endoplasmic reticulum stress) ([3]; Hela ATF6 reporter cells, tunicamycin 100 ng/mL, 18 h, compounds at recommended concentrations, n = 5): Consistently weaker ATF6 activity
- activity at 1 µM ([3]; Homo sapiens, HeLa, 1 µM, single replicates n=1 to n=5, read-out: ER stress [rel. ATF6 activity]): 72%
- EC50 (NR3C1 (GR)): 8 nM
- Metabolic activity [MA] (HEK293T cells [4]): 1.06 and 1.03 (2×) and 0.92 and 0.98 (2×) and 1.01 and 1.10
- Growth rate [GR] (HEK293T cells [5]): 0.71 and 0.34 and 0.95 and 1.09 and 0.91 and 1.08 and 0.81 and 0.17 and 2.51 and -0.30
- Apoptosis induction [AI] (HEK293T cells [6]): 0.38 and 0.63 and 0.67 and 0.78 and 0.69 and 1.03
